In PubChem BioAssay (NCI):
“And” between values parts separate entries of the source, which are not always exact repeats. Identical values can stand only once.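 In this assay, cells in 96-well plates receive the compound at five concentrations for 48 hours. Endpoints are linearly interpolated between the surrounding concentrations. GI50 is the concentration that inhibits growth by half. TGI denotes the concentration required for complete inhibition of growth.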

Assays:
Test in all cases: NCI tumour cell line growth inhibition, 48 h
TK-10 renal = test system: TK-10 renal
NCI-H522 lung = test system: NCI-H522 lung
ACHN renal = test system: ACHN renal
SN12C renal = test system: SN12C renal
HCT-15 colon = test system: HCT-15 colon
SF-295 CNS = test system: SF-295 CNS
SR leukemia = test system: SR leukemia
SK-MEL-5 melanoma = test system: SK-MEL-5 melanoma
OVCAR-3 ovarian = test system: OVCAR-3 ovarian
NCI-H460 lung = test system: NCI-H460 lung

| SMILES | GI50 (TK-10 renal) [µM] | TGI (TK-10 renal) [µM] | GI50 (NCI-H522 lung) [µM] | TGI (NCI-H522 lung) [µM] | GI50 (ACHN renal) | TGI (ACHN renal) | GI50 (SN12C renal) | TGI (SN12C renal) [µM] | GI50 (HCT-15 colon) | TGI (HCT-15 colon) [µM] | GI50 (SF-295 CNS) | TGI (SF-295 CNS) [µM] | GI50 (SR leukemia) [µM] | TGI (SR leukemia) [µM] | GI50 (SK-MEL-5 melanoma) [µM] | TGI (SK-MEL-5 melanoma) | GI50 (OVCAR-3 ovarian) | TGI (OVCAR-3 ovarian) | TGI (NCI-H460 lung) | GI50 (NCI-H460 lung) |
| --- | --- | --- | --- | --- | --- | --- | --- | --- | --- | --- | --- | --- | --- | --- | --- | --- | --- | --- | --- | --- |
| NC(=N\N=C/c1cccc([N+](=O)[O-])c1)/C(N)=N\N=C/c1cccc([N+](=O)[O-])c1 | > 100 | > 100 | > 100 | > 100 | > 100 µM | > 100 µM | > 100 µM | > 100 | > 100 µM | > 100 | > 100 µM | > 100 | > 100 | > 100 | > 100 | > 100 µM | > 100 µM | > 100 µM | – | – |
| Cc1nc2cc(N)c(F)cc2[nH]1 | – | > 100 | – | > 100 | – | > 100 µM | – | > 100 | – | – | – | > 100 | – | > 100 | – | > 100 µM | – | – | > 100 µM | – |
| CCn1c(O)c(C=N)c(=O)n(CC)c1=O | – | > 100 | – | > 100 | – | > 100 µM | – | > 100 | – | > 100 | – | > 100 | – | – | – | > 100 µM | – | > 100 µM | > 100 µM | – |
| Cc1cc(N2CCCC2)nc(NC2CCCC(Nc3ccnc4cc(Cl)ccc34)C2)n1 (stereo not drawn) | 2.55 | 4.56 | 1.58 | 3.21 | 1.27 µM | 2.79 µM | – | – | 1.02 µM | 2.44 | 1.47 µM | 2.89 | – | – | 1.69 | 3.09 µM | 1.67 µM | 4.21 µM | – | – |
| C[C@@H]1N=C(c2ccc(Br)cc2)Nc2nc3ccccn3c2C1=O | 21 | > 100 | 3.24 | 18.4 | 6.75 µM | > 100 µM | 17.6 µM | > 100 | 3.64 µM | > 100 | – | – | 2.42 | > 100 | 2.24 | 40.5 µM | 3.34 µM | 17.8 µM | > 100 µM | 3.06 µM |
| CN(C)CC/C(=N\Nc1ccccc1)c1ccccc1 | – | 41.2 | – | – | – | – | – | – | – | 27.6 | – | 6.89 | – | > 100 | – | 35.6 µM | – | 27.7 µM | – | – |
| O=C1NC2CCC(C2)C1c1ccccc1 (stereo not drawn) | – | > 100 | – | – | – | > 100 µM | – | > 100 | – | – | – | > 100 | – | > 100 | – | > 100 µM | – | > 100 µM | > 100 µM | – |
| O=C([CH-]C(=O)c1ccccc1)c1ccccc1.O=C([CH-]C(=O)c1ccccc1)c1ccccc1.O=C([CH-]C(=O)c1ccccc1)c1ccccc1.[OH3+].[Y+3] | 7.78 | 68.4 | 2.58 | 11.1 | 6.34 µM | 21.9 µM | 4.68 µM | 26.7 | 4.96 µM | 22.8 | 3.99 µM | 19.1 | – | – | 3.72 | 13.9 µM | 5 µM | 17.3 µM | 34.6 µM | 4.29 µM |
| O=P([O-])(O)OP(=O)([O-])O.[NH-][C@@H]1CCCC[C@H]1[NH-].[Pt+4] | 52.4 | > 100 | 14.6 | > 100 | 4.78 µM and 5.63 µM | > 100 µM and 58.2 µM | 17.6 µM and 8.78 µM | > 100 | 11.2 µM and 8.21 µM | > 100 | 26.2 µM and 14.5 µM | > 100 | – | – | – | > 100 µM and 14.9 µM | 23.8 µM and 11.2 µM | > 100 µM and 29.4 µM | > 100 µM and 19.5 µM | 4.4 µM and 2.33 µM |
| CCCN1CCN(c2ccc3nc(-c4ccc5nc(-c6cc(OC)ccc6OC)[nH]c5c4)[nH]c3c2)CC1 | – | – | 1.74 | 3.68 | 1.69 µM | 3.06 µM | 16.3 µM | 32.8 | 1.74 µM | 3.36 | 15.7 µM | 30.1 | 2.55 | 5.54 | 15.1 | 34.1 µM | 1.84 µM | 3.39 µM | 3.56 µM | 1.91 µM |
| COC(=O)C(=O)C(C#N)c1ccc(CC#N)cc1 (stereo not drawn) | – | > 100 | – | > 100 | – | > 100 µM | – | > 100 | – | > 100 | – | > 100 | – | > 100 | – | – | – | > 100 µM | – | – |
| O=C1c2ccccc2C2(O)NC(=S)N(c3ccccc3)C12O (stereo not drawn) | – | > 100 | – | > 100 | – | – | – | – | – | > 100 | – | > 100 | – | > 100 | – | – | – | > 100 µM | > 100 µM | – |
| O=c1ccnc2c1ccc1[nH]cccc12 | – | > 100 | – | > 100 | – | > 100 µM | – | > 100 | – | > 100 | – | – | – | > 100 | – | > 100 µM | – | > 100 µM | > 100 µM | – |
| Cc1ccc(NC(=O)CCC/C(CC(=O)c2ccc(Br)cc2)=N/NC(=O)CC#N)cc1 | – | > 100 | – | – | – | > 100 µM | – | > 100 | – | – | – | > 100 | – | – | – | > 100 µM | – | > 100 µM | > 100 µM | – |
| CC(=O)Nc1c(C)ccc2c1C(=O)c1ccccc1C2=O | – | > 100 | – | > 100 | – | > 100 µM | – | > 100 | – | > 100 | – | > 100 | – | > 100 | – | > 100 µM | – | – | > 100 µM | – |
| CC1(C)CCC[C@@]2(C)C1CC[C@H]1CC(O)C3(C)CCC12C3 (stereo partly drawn) | – | 28.7 | – | 30.3 | – | 31.8 µM | – | 30.7 | – | 32.9 | – | – | – | 46.7 | – | 31.4 µM | – | 30.7 µM | 32.8 µM | – |
| COC(=O)C(=O)C(C(=O)C(=O)Nc1ccccc1C(C)=O)c1nc2ccc(C(=O)c3ccccc3)cc2[nH]c1=O (stereo not drawn) | – | > 100 | – | > 100 | – | > 100 µM | – | > 100 | – | > 100 | – | > 100 | – | – | – | > 100 µM | – | > 100 µM | > 100 µM | – |
| CC/C(=C(/CC)c1ccc(O)cc1)c1ccc([O-])cc1.CC/C(=C(/CC)c1ccc(O)cc1)c1ccc([O-])cc1.O=C([CH-]C(=O)c1ccccc1)c1ccccc1.O=C([CH-]C(=O)c1ccccc1)c1ccccc1.[Ti+4] | 30.2 | 76.9 | – | – | 20.5 µM | 72.8 µM | 14 µM | 26.9 | 6.8 µM | 32.3 | 17.9 µM | 35 | 9.89 | > 100 | – | – | 27.7 µM | > 100 µM | 25.8 µM | 13.1 µM |
